# Data: patent EP0465913B1, “Diaminotrifluoromethylpyrimidine derivatives, process for their production and phospholipase A2 inhibitor containing them” (ISHIHARA SANGYO KAISHA, LTD., priority 1990, dated 1992)
# Where two headings read alike, the source gives them in different places.
# What was measured:
# [1] = target: T1, Porcine pancreatic phospholipase A2 (Sus scrofa, UniProt P00592); assay: Phospholipase A2 inhibitory activity, method A (egg yolk lecithin substrate); type: biochemical; conditions: 1,000 ppm, 37°C for 30 minutes, read-out: % inhibition of PLA2 (1,000 ppm)
# T1 construct: purchased Boehringer Mannheim·Yamanouchi K.K. 161454·122416
# T1 sequence (P00592 23-146): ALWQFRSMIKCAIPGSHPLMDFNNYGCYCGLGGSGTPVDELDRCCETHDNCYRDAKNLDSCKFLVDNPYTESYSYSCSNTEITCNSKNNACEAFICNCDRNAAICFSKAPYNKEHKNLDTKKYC
# Description: To 10 mg of egg yolk lecithin (manufactured by Wako Pure Chemical Industries Ltd.), 1 ml of glycerine, 2 ml of a 50 mM Tris-HCl buffer solution (pH7.5) [Tris(hydroxymethyl)aminomethane (manufactured by Nacalai Tesque K.K.) was adjusted to pH7.5 with hydrochloric acid], 0.5 ml of a 150 mM calcium chloride solution (calcium chloride was dissolved in a 50 mM Tris-HCl buffer solution) and 0.5 ml of a 0.05% Triton-X100 (manufactured by Nacalai Tesque K.K.) solution (Triton-X100 was dissolved in a 50 mM Tris-HCl buffer solution), were added and dispersed by an agate mortar or dispersed by an ultrasonic processor (Model W-225, manufactured by Heat System-Ultrasonics, Inc.) for 5 minutes (30W) to obtain a substrate.
# (§1) Porcine pancreatic phospholipase A2 [(161454·122416) manufactured by Boehringer Mannheim·Yamanouchi K.K.] was used.
# To a 96 well microtitration plate (flat bottom, manufactured by Sumitomo Bakelite Medical Co., Ltd.), 40 µl of the substrate, 5 µl of a solution prepared by dissolving 10 mg of a test compound in 500 µl of dimethylsulfoxide, followed by an addition of 500 µl of a 50 mM Tris-HCl buffer solution, and 5 µl of an enzyme solution of 20 ng/ml (prepared by diluting the enzyme in a 50 mM Tris-HCl buffer solution), were added and reacted at 37°C for 30 minutes. After termination of the reaction, the released free fatty acid was quantitatively analyzed in accordance with the ACS-ACOD (acyl CoA synthetase-acyl CoA oxidase) method [a kit of NEFA C test wako (manufactured by Wako Pure Chemical Industries, Ltd.) was used]. The quantitative analysis was made by means of Microplate ELISA Reader (Model 2550EIA Reader, manufactured by Bio-Rad Laboratories) at a wavelength of 540 nm. Separately, such experiments as mentioned above, were carried out at various concentrations (2 µg/ml, 1 µg/ml and 0.5 µg/ml) of phospholipase A2 without a test compound. Then, the concentration of the free fatty acid versus the concentration of phospholipase A2 was plotted.
# (§2) From this standard curve, the apparent concentration of phospholipase A2 in the case with a test compound, was read. Then, the percent inhibition of the enzyme was calculated by the following formula. Percent inhibition (%) = (l -(A)/(B)) x 100 [formula] • A: Apparent enzyme concentration when a test compound is added. • B: True enzyme concentration when a test compound is added.
# [2] = tested on: experimental acute pancreatitis model; assay: Effects against acute pancreatitis (Test Example 8, closed duodenal loop method, lesion scores); type: in vivo, Crj-CD male rats; conditions: sodium salt, 6 hours after ventrotomy; for inhibition in vivo at 10 mg/kg: Rattus norvegicus, 10 mg/kg single intravenous injection
# Description: Using Crj-CD male rats, each test group consisted of 3 rats. An experimental acute pancreatitis model was prepared by a closed duodenal loop method under anethesia with halothane (manufactured by Hoechst Japan) and nitrous oxide (manufactured by Sumitomo Seika K.K.) applied by a general inhalation anesthesia machine (Model EM2 and halothane evaporator F-Model). Each compound (subjected to the test in the form of a sodium salt) was continuously intravenously injected into the tail vein in an amount of 0.4 ml/100 g to 0.6 ml/100 g at a rate of 0.05 ml per minute by a pump (Technicon AA II Proportioning Pump III, manufactured by Technicon Instruments Corporation) or rapidly intravenously injected. No injection was made to a control group. Gross pathological examination was conducted upon expiration of 6 hours after the ventrotomy in the case of the group to which the compound was administered. With respect to each of four lesions among pancreatic lesions i.e. petechia, ecchymosis, pancreatic necrosis and abdominal fatty necrosis, the grade and the distribution of lesions were scored with five grades of 0, 0.5, 1, 2 and 3 (severe lesions are 3). The sum of all lesions was designated as scores of pancreatitis lesions, and the sum of the score of petechia and the score of ecchymosis only was designated as scores of hemorrhagic lesions. The pancreatitis inhibition rate (%) and the hemorrhage inhibition rate (%) were obtained by the following formulas, and the results are shown in Table 13. Pancreatitis inhibition rate (%) = (l -(H)/(G)) x 100 [formula] • H: Scores of pancreatitis lesions of the group to which a test compound was administered. • G: Scores of pancreatitis lesions of the control group. Hemorrhage inhibition rate (%) = (l -(J)/(I)) x 100 [formula] • J: Scores of hemorrhagic lesions of the group to which a test compound was administered. • I: Scores of hemorrhagic lesions of the control group.
# carrageenin edema = assay: Inhibitory activity on carrageenin edema; type: in vivo, Wistar male rats; conditions: rat; dose 50 mg/kg orally; paw swelling volume three hours after carrageenin
# Description: Using Wistar male rats (body weight: about 100 g), each test group consisted of 5 rats. A test compound was mixed with Tween 80 [polyoxyethylenesorbitan monooleate (manufactured by Nacalai Tesque K.K.)], and distilled water was added thereto to obtain a 2% Tween 80 suspension, or it was dissolved in the form of a salt in water to obtain an aqueous solution. Either the suspension or the aqueous solution was orally administered in an amount of 200 mg/kg, 100 mg/kg, 50 mg/kg or 25 mg/kg. One hour later, 0.1 ml of a 1% λ-carrageenin solution dissolved in a physiological saline was injected subcutaneously to the right hind paw of each rat to cause inflamation. Three hours later, the paw volume was measured by a paw volume measuring device (manufactured by Ugobasiee K.K.). A swelling volume was obtained from the difference from the value before the inflammation. Inhibition rate (%) = (l -(F)/(E)) x 100 [formula] • F: Average swelling volume in the group to which a test compound was administered. • E: Average swelling volume in the control group.
# [3] = target: T1, Porcine pancreatic phospholipase A2; assay: Phospholipase A2 inhibitory activity, method B (L-α-dipalmitoylphosphatidylcholine substrate); type: biochemical; conditions: 37°C for 30 minutes; for inhibition at 1000 ppm: 1,000 ppm, read-out: % inhibition of PLA2 (1,000 ppm)
# Description: To a solution prepared by dissolving 9.2 mg of L-α-dipalmitoylphosphatidylcholine (manufactured by Nichiyu Liposome K.K.) in 0.5 ml of chloroform, a solution prepared by dissolving 32 mg of sodium cholate (manufactured by Wako Pure Chemical Industries, Ltd.) in 0.5 ml of methanol, was added, followed by mixing. The solvent of the mixture was removed under a nitrogen stream, and then 2.5 ml of a 250 mM sodium chloride solution [prepared by dissolving sodium chloride in a 100 mM Tris-HCl buffer solution {tris(hydroxymethyl)aminomethane (manufactured by Nacalai Tesque K.K.) was adjusted to pH8.0 with hydrochloric acid}] was added thereto, and the mixture was dissolved under stirring to obtain a substrate.
# as §1
# To a 96 well microtitration plate, 20 µl of a solution containing calcium chloride, bovine serum alubmin (manufactured by Sigma Chemical, Co.) and a Tris-HCl buffer solution (pH8.0) at concentrations of 25 mM, 4.5 mg/ml and 100 mM, respectively, 5 µl of a solution prepared by dissolving 10 mg of a test compound in 500 µl of diemthylsulfoxide, followed by an addition of 500 µl of a 200 mM Tris-HCl buffer solution, 5 µl of an enzyme solution (10 µg/ml) [prepared by dissolving the enzyme in a bovine serum alubmin solution (prepared by dissolving bovine serum alubmin in a 100 mM Tris-HCl buffer solution at a concentration of 1 mg/ml)] and 20 µl of the substrate, were added and reacted at 37°C for 30 minutes. After termination of the reaction, the released free fatty acid was quantitatively analyzed in accordance with the ACS-ACOD (acyl CoA synthetase-acyl CoA oxidase) method [a kit of NEFA C test wako (manufactured by Wako Pure Chemical Industries, Ltd.) was used]. The quantitative analysis was made by means of Microplate ELISA Reader (Model 2550EIA Reader, manufactured by Bio-Rad Laboratories) at a wavelength of 540 nm. Separately, such experiments as mentioned above, were carried out at various concentrations (1 µg/ml, 0.75 µg/ml, 0.5 µg/ml and 0.25 µg/ml) of phospholipase A2 without a test compound. Then, the concentration of the free fatty acid versus the concentration of phospholipase A2 was plotted.
# as §2
# [4] = read-out: Inhibition rate of hemorrhagic lesions (%)
# [5] = read-out: Inhibition rate of pancreatitis lesions (%)
inhibition at 1000 ppm [1] [%],inhibition at 1000 ppm [3] [%],SMILES,Inhibition rate (%) (carrageenin edema),also measured
87,,"O=C(Nc1ncc(C(F)(F)F)cc1NC(=O)C(Cl)(Cl)Cl)C(F)(F)F [Compound No. 30, N-(3-trichloroacetylamino-5-trifluoromethyl-2-pyridyl)trifluoroacetamide]",,
35,,CCOCCC(=O)Nc1cc(C(F)(F)F)cnc1NC(=O)CCOCC [compound 26],,
62,,O=C(Nc1ncc(C(F)(F)F)cc1NC(=O)C(F)(F)F)C(Cl)Cl [compound 27],,
71,,O=C(Nc1cc(C(F)(F)F)cnc1NC(=O)C(Cl)Cl)C(Cl)Cl [compound 28],25,
47,,O=C(Nc1cc(C(F)(F)F)cnc1NC(=O)C(F)(F)F)C(Cl)Cl [compound 29],,
50,,O=C(Nc1cc(C(F)(F)F)cnc1NC(=O)C(F)(F)C(F)(F)F)c1ccccc1 [compound 32],,
35,,CCOC(=O)Nc1ncc(C(F)(F)F)cc1NC(=O)OCc1ccccc1 [compound 38],,
43,64,COc1ccc(C(=O)Nc2cc(C(F)(F)F)cnc2NS(C)(=O)=O)cc1 [compound 44],,
47,,CS(=O)(=O)Nc1ncc(C(F)(F)F)cc1NC(=O)CCCCCl [compound 46],30,Inhibition rate of hemorrhagic lesions (%) ([2]; 46 mg/kg continuous intravenous injection): 36%
48,,CCS(=O)(=O)Nc1ncc(C(F)(F)F)cc1NC(=O)c1ccccc1 [compound 48],,
78,,CC(C)S(=O)(=O)Nc1ncc(C(F)(F)F)cc1NC(=O)C(Cl)(Cl)Cl [compound 50],,
63,,CC(C)S(=O)(=O)Nc1ncc(C(F)(F)F)cc1NC(=O)C(F)(F)C(F)(F)F [compound 51],,
49,,CCCCS(=O)(=O)Nc1ncc(C(F)(F)F)cc1NC(=O)C(F)(F)C(F)(F)F [compound 52],,
37,100,CCCCS(=O)(=O)Nc1ncc(C(F)(F)F)cc1NC(=O)C1CCCCC1 [compound 53],,
37,,CCOC(=O)NC(=S)Nc1cc(C(F)(F)F)cnc1NC [compound 54],,
74,42,CS(=O)(=O)Nc1ncc(C(F)(F)F)cc1NC(=O)c1cccc(F)c1 [compound 58],,"inhibition in vivo at 10 mg/kg [2, 4]: 70%; inhibition in vivo at 10 mg/kg [2, 5]: 51%"
,71,CCCCC(CC)C(=O)Nc1cc(C(F)(F)F)cnc1NS(C)(=O)=O (centres unmarked) [compound 65],37,"inhibition in vivo at 10 mg/kg [2, 4]: 67%; inhibition in vivo at 10 mg/kg [2, 5]: 74%"
,52,CCC(C(=O)Nc1cc(C(F)(F)F)cnc1NS(C)(=O)=O)c1ccccc1 (centres unmarked) [compound 66],31,"inhibition in vivo at 10 mg/kg [2, 4]: 53%; inhibition in vivo at 10 mg/kg [2, 5]: 63%"
,61,CC(C)S(=O)(=O)Nc1ncc(C(F)(F)F)cc1NC(=O)c1cccc(F)c1 [compound 104],48,
,58,CCCCCC(=O)Nc1cc(C(F)(F)F)cnc1NS(=O)(=O)N(C)C [compound 110],25,
,53,CCCOC(=O)Nc1cc(C(F)(F)F)cnc1NS(=O)(=O)N(C)C [compound 114],28,"inhibition in vivo at 10 mg/kg [2, 4]: 32%; inhibition in vivo at 10 mg/kg [2, 5]: 27%"
,86,CS(=O)(=O)Nc1ncc(C(F)(F)F)cc1NC(=O)c1ccc2c(c1)CCCC2 [compound 123],42,"inhibition in vivo at 10 mg/kg [2, 4]: 56%; inhibition in vivo at 10 mg/kg [2, 5]: 56%"
,86,CCCCCCCC(=O)Nc1cc(C(F)(F)F)cnc1NS(C)(=O)=O [compound 125],22,
,,CS(=O)(=O)Nc1ncc(C(F)(F)F)cc1NC(=O)c1ccc(F)cc1 [compound 259],17,"% inhibition of PLA2 (1,000 ppm) [3]: 61%"

SMILES,inhibition at 1000 ppm [1] [%],inhibition at 1000 ppm [3] [%],Inhibition rate (%) (carrageenin edema),also measured
CS(=O)(=O)Nc1ncc(C(F)(F)F)cc1NC(=O)C(F)(F)C(F)(F)C(F)(F)F [compound 14],54,,,Inhibition rate of hemorrhagic lesions (%) ([2]; 19 mg/kg continuous intravenous injection): 52%
